Measured values taken from US20100227887A1 (priority 2009, published 2010).

Assays:
human mGlu 5a receptor = biological target: T1, human mGlu 5a receptor (Homo sapiens, UniProt P41594); assay: [3H]MPEP competition binding on membranes of EBNA cells transfected with human mGlu 5a receptor; conditions: [3H]MPEP (2 nM) competition, 1 h at 4° C., EBNA cell membranes
T1 construct: expressed in transfected cells; host or cells: EBNA cells (transient transfection); cell membrane homogenates
Experimental: The pharmacological activity of the compounds was tested using the following method: For binding experiments, cDNA encoding human mGlu 5a receptor was transiently transfected into EBNA cells using a procedure described by Schlaeger and Christensen [Cytotechnology 15:1-13 (1998)]. Cell membrane homogenates were stored at −80° C. until the day of assay where upon they were thawed and resuspended and polytronised in 15 mM Tris-HCl, 120 mM NaCl, 100 mM KCl, 25 mM CaCl2, 25 mM MgCl2 binding buffer at pH 7.4 to a final assay concentration of 20 μg protein/well.
Saturation isotherms were determined by addition of twelve [^3H]MPEP concentrations (0.04-100 nM) to these membranes (in a total volume of 200 μl) for 1 h at 4° C. Competition experiments were performed with a fixed concentration of [^3H]MPEP (2 nM) and IC50 values of test compounds evaluated using 11 concentrations (0.3-10,000 nM). Incubations were performed for 1 h at 4° C.
At the end of the incubation, membranes were filtered onto unifilter (96-well white microplate with bonded GF/C filter preincubated 1 h in 0.1% PEI in wash buffer, Packard Bio-Science, Meriden, Conn.) with a Filtermate 96 harvester (Packard BioScience) and washed 3 times with cold 50 mM Tris-HCl, pH 7.4 buffer. Nonspecific binding was measured in the presence of 10 μM MPEP. The radioactivity on the filter was counted (3 min) on a Packard Top-count microplate scintillation counter with quenching correction after addition of 45 μl of microscint 40 (Canberra Packard S. A., Zürich, Switzerland) and shaking for 20 min.
For binding experiments the Ki values of the compounds tested are given. The Ki value is defined by the following formula: […]
in which the IC50 values are those concentrations of the compounds tested which cause 50% inhibition of the competing radioligand ([^3H]MPEP). L is the concentration of radioligand used in the binding experiment and the Kd value of the radioligand is empirically determined for each batch of membranes prepared.

T1 sequence (P41594 21-1180 isoform P41594-2 limits assumed): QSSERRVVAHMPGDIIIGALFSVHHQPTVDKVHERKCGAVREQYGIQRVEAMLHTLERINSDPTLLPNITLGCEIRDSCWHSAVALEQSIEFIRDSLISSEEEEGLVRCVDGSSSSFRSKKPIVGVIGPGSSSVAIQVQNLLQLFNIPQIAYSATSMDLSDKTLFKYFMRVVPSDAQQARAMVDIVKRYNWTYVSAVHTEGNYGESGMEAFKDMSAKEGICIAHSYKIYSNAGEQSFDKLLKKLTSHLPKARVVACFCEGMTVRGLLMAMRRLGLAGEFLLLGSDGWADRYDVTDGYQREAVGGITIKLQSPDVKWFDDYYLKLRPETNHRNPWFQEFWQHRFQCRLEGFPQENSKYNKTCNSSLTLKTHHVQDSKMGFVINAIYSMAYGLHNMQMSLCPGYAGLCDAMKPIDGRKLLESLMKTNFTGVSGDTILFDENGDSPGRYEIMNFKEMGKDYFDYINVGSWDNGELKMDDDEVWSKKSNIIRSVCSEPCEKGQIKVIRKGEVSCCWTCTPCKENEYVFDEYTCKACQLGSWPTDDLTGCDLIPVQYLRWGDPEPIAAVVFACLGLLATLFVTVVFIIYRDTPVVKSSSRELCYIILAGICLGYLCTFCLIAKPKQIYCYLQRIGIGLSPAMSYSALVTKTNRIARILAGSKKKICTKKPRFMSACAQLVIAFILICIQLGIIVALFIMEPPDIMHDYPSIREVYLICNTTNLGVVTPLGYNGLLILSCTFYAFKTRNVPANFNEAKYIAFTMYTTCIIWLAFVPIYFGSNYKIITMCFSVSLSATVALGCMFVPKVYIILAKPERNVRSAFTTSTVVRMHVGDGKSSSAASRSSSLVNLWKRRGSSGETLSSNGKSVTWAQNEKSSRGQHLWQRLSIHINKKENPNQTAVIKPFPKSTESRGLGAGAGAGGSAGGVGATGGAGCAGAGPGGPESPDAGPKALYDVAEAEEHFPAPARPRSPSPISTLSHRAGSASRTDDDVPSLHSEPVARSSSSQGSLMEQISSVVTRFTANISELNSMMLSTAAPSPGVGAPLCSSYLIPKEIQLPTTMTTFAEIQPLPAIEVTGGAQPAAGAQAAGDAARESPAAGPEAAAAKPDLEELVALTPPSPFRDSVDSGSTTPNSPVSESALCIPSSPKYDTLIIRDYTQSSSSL

| Ki (human mGlu 5a receptor) [nM] | melting point [°C] | Structure (SMILES) |
| --- | --- | --- |
| 109 | 279 | Cc1cc(C#N)cc(C(=O)Nc2ccc(C#N)cn2)n1 [Example 6, 4-Cyano-6-methyl-pyridine-2-carboxylic acid (5-cyano-pyridin-2-yl)-amide] |
| 42 | 167 | Cc1cc(C#N)cc(C(=O)Nc2cccc(C(F)(F)F)c2)n1 [Example 44, 4-Cyano-6-methyl-pyridine-2-carboxylic acid (3-trifluoromethyl-phenyl)-amide] |
|  | 174 | CC(C)c1cc(C#N)cc(C(=O)Nc2ccn(C)n2)n1 [Example 13, 4-Cyano-6-isopropyl-pyridine-2-carboxylic acid (1-methyl-1H-pyrazol-3-yl)-amide] |
| 8 | 222.5 | Cc1cc(C#N)cc(C(=O)Nc2cccc(Cl)n2)n1 [Example 23, 4-Cyano-6-methyl-pyridine-2-carboxylic acid (6-chloro-pyridin-2-yl)-amide] |
| 18 | 243.5 | Cc1cccc(NC(=O)c2cc(C#N)cc(C)n2)n1 [Example 47, 4-Cyano-6-methyl-pyridine-2-carboxylic acid (6-methyl-pyridin-2-yl)-amide] |
|  | 190.5 | Cn1ccc(NC(=O)c2cc(C#N)cc(C(F)(F)F)n2)n1 [Example 15, 4-Cyano-6-trifluoromethyl-pyridine-2-carboxylic acid (1-methyl-1H-pyrazol-3-yl)-amide] |
|  | 189 | Cc1cc(C#N)cc(C(=O)Nc2ccc(F)cc2)n1 [Example 39, 4-Cyano-6-methyl-pyridine-2-carboxylic acid (4-fluoro-phenyl)-amide] |
| 61 | 181.5 | Cc1cc(Br)cc(C(=O)Nc2ccc(F)c(C)n2)n1 [Example 10, 4-Bromo-6-methyl-pyridine-2-carboxylic acid (5-fluoro-6-methyl-pyridin-2-yl)-amide] |
| 73 | 203.5 | Cc1cc(Cl)cc(C(=O)Nc2ccn(C)n2)n1 [Example 2, 4-Chloro-6-methyl-pyridine-2-carboxylic acid (1-methyl-1H-pyrazol-3-yl)-amide] |
| 117 | 170 | Cc1cc(C#N)cc(C(=O)Nc2ccc(F)c(F)c2)n1 [Example 42, 4-Cyano-6-methyl-pyridine-2-carboxylic acid (3,4-difluoro-phenyl)-amide] |
|  | 162 | Cc1cc(NC(=O)c2cc(Cl)cc(C)n2)ccn1 [Example 53, 4-Chloro-6-methyl-pyridine-2-carboxylic acid (2-methyl-pyridin-4-yl)-amide] |
|  | 123 | Cc1cc(Cl)cc(C(=O)Nc2cccc(F)c2)n1 [Example 52, 4-Chloro-6-methyl-pyridine-2-carboxylic acid (3-fluoro-phenyl)-amide] |
| 37 | 160 | Cc1cc(Br)cc(C(=O)Nc2ccc(F)cn2)n1 [Example 8, 4-Bromo-6-methyl-pyridine-2-carboxylic acid (5-fluoro-pyridin-2-yl)-amide] |
| 55 | 174 | Cc1cc(Cl)cc(C(=O)Nc2cccc(Cl)c2)n1 [Example 37, 4-Chloro-6-methyl-pyridine-2-carboxylic acid (3-chloro-phenyl)-amide] |
| 38 | 201 | Cc1cc(C#N)cc(C(=O)Nc2ccn(C)n2)n1 [Example 1, 4-Cyano-6-methyl-pyridine-2-carboxylic acid (1-methyl-1H-pyrazol-3-yl)-amide] |
| 97 | 95 | Cc1cccc(NC(=O)c2cc(Cl)cc(C)n2)c1 [Example 51, 4-Chloro-6-methyl-pyridine-2-carboxylic acid m-tolylamide] |
|  | 201 | Cc1cc(C#N)c(C)c(C(=O)Nc2ccc(F)c(C)n2)n1 [Example 28, 4-Cyano-3,6-dimethyl-pyridine-2-carboxylic acid (5-fluoro-6-methyl-pyridin-2-yl)-amide] |
| 9 | 139 | Cc1cc(C#N)cc(C(=O)Nc2cccc(F)c2)n1 [Example 41, 4-Cyano-6-methyl-pyridine-2-carboxylic acid (3-fluoro-phenyl)-amide] |
| 11 | 196 | Cc1ccc(NC(=O)c2cc(C#N)cc(C)n2)nc1 [Example 5, 4-Cyano-6-methyl-pyridine-2-carboxylic acid (5-methyl-pyridin-2-yl)-amide] |

| Ki (human mGlu 5a receptor) [nM] | melting point [°C] | Structure (SMILES) |
| --- | --- | --- |
| 14 | 176 | Cc1cc(Cl)cc(C(=O)Nc2nc(C)cs2)n1 [Example 20, 4-Chloro-6-methyl-pyridine-2-carboxylic acid (4-methyl-thiazol-2-yl)-amide] |
| 15 | 130.5 | Cc1cccc(NC(=O)c2cc(Cl)cc(C)n2)n1 [Example 36, 4-Chloro-6-methyl-pyridine-2-carboxylic acid (6-methyl-pyridin-2-yl)-amide] |
| 57 | 189 | COc1cccc(NC(=O)c2cc(C#N)cc(C)n2)c1 [Example 45, 4-Cyano-6-methyl-pyridine-2-carboxylic acid (3-methoxy-phenyl)-amide] |
| 139 | 186.5 | N#Cc1cc(C(=O)Nc2ccc(F)cn2)nc(C(F)(F)F)c1 [Example 16, 4-Cyano-6-trifluoromethyl-pyridine-2-carboxylic acid (5-fluoro-pyridin-2-yl)-amide] |
| 34 | 176 | Cc1cc(Cl)cc(C(=O)Nc2cccc(Cl)n2)n1 [Example 35, 4-Chloro-6-methyl-pyridine-2-carboxylic acid (6-chloro-pyridin-2-yl)-amide] |
| 6 | 147.5 | Cc1cc(C#N)cc(C(=O)Nc2cccc(Cl)c2)n1 [Example 26, 4-Cyano-6-methyl-pyridine-2-carboxylic acid (3-chloro-phenyl)-amide] |
| 11 | 183.5 | CCc1cc(C#N)cc(C(=O)Nc2ccc(F)cn2)n1 [Example 25, 4-Cyano-6-ethyl-pyridine-2-carboxylic acid (5-fluoro-pyridin-2-yl)-amide] |
|  | 212.5 | Cc1ccc(NC(=O)c2nc(C)cc(C#N)c2C)nc1 [Example 32, 4-Cyano-3,6-dimethyl-pyridine-2-carboxylic acid (5-methyl-pyridin-2-yl)-amide] |
| 44 | 167 | N#Cc1cc(CO)nc(C(=O)Nc2cccc(Cl)c2)c1 [Example 40, 4-Cyano-6-hydroxymethyl-pyridine-2-carboxylic acid (3-chloro-phenyl)-amide] |
| 97 | 264 | Cc1cc(C#N)c(C)c(C(=O)Nc2ccc(Cl)cn2)n1 [Example 29, 4-Cyano-3,6-dimethyl-pyridine-2-carboxylic acid (5-chloro-pyridin-2-yl)-amide] |
| 8 | 233.5 | Cc1cc(C#N)cc(C(=O)Nc2ccc(Cl)cn2)n1 [Example 9, 4-Cyano-6-methyl-pyridine-2-carboxylic acid (5-chloro-pyridin-2-yl)-amide] |
| 99 | 302 | Cc1cc(NC(=O)c2cc(C#N)cc(C)n2)ccn1 [Example 50, 4-Cyano-6-methyl-pyridine-2-carboxylic acid (2-methyl-pyridin-4-yl)-amide] |
| 111 | 232.5 | N#Cc1cc(CO)nc(C(=O)Nc2ccc(F)cn2)c1 [Example 46, 4-Cyano-6-hydroxymethyl-pyridine-2-carboxylic acid (5-fluoro-pyridin-2-yl)-amide] |
|  | 151 | Cc1cc(Cl)cc(C(=O)Nc2ccc(Cl)cn2)n1 [Example 17, 4-Chloro-6-methyl-pyridine-2-carboxylic acid (5-chloro-pyridin-2-yl)-amide] |
|  | 123.5 | CCc1cc(Br)cc(C(=O)Nc2ccc(F)cn2)n1 [Example 21, 4-Bromo-6-ethyl-pyridine-2-carboxylic acid (5-fluoro-pyridin-2-yl)-amide] |
|  | 221 | Cc1cc(Cl)cc(C(=O)Nc2ccnc(Cl)c2)n1 [Example 34, 4-Chloro-6-methyl-pyridine-2-carboxylic acid (2-chloro-pyridin-4-yl)-amide] |
|  | 208 | N#Cc1cc(C(=O)Nc2ccc(Cl)cn2)nc(C(F)(F)F)c1 [Example 33, 4-Cyano-6-trifluoromethyl-pyridine-2-carboxylic acid (5-chloro-pyridin-2-yl)-amide] |
|  | 216 | Cc1cc(C#N)c(C)c(C(=O)Nc2ccc(C#N)cn2)n1 [Example 31, 4-Cyano-3,6-dimethyl-pyridine-2-carboxylic acid (5-cyano-pyridin-2-yl)-amide] |
